The values that follow are results of earlier work, collected in patent US20240115593A1, “METHISOPRINOL COMPOSITIONS” (priority 2020, published 2024).

For this data set the following is noted: water solution without additional 1-dimethylaminopropan-2-ol 4-acetamidobenzoate, stored at +20° C. to +2° C.

For the substance Methisoprinol, the “time after which Methisoprinol crystallizes out” value was 6 days.
